# Results published in patent US6747012B1, “Crystalline anthracycline antibiotic and process for producing the same” (Mercian Corporation, priority 1997, dated 2004).
# Assay: Residual solvent content by gas chromatography
# Format: physicochemical
# Settings: conclusion from Table 3
# Procedure: Each of the same samples as used in Example 12 was analyzed by gas chromatography (GC) to determine its residual solvent content.
# (Operating Conditions for Analysis by GC)
# Detector: Flame ionization detector.
# Column temperature: Operated at 40° C. for 5 minutes, and then raised to 80° C. in 5 minutes and held at that temperature.
# Vaporization chamber temperature: A constant temperature around 200°.
# Flow rate: A constant flow rate at which the retention time of an internal standard substance (dioxane) is about 6 minutes.
row,residual solvent content (in words),Compound
1,within an acceptable limit,"COc1cccc2c1C(=O)c1c(O)c3c(c(O)c1C2=O)CC(O)(C(C)=O)CC3OC1CC(N)C(O)C(C)O1.Cl (stereo not drawn) [Ex.2, DM hydrochloride]"

# Same assay, conditions: gas chromatography (GC); hydrochloride
row,Compound,Residual solvent content (%)
1,"COc1cccc2c1C(=O)c1c(O)c3c(c(O)c1C2=O)CC(O)(C(C)=O)CC3OC1CC(N)C(O)C(C)O1.Cl (stereo not drawn) [Ex.1, DM hydrochloride]",0.14%
2,"COc1cccc2c1C(=O)c1c(O)c3c(c(O)c1C2=O)CC(O)(C(C)=O)CC3OC1CC(N)C(O)C(C)O1.Cl (stereo not drawn) [Ex.2, DM hydrochloride]",0.40%
3,"COc1cccc2c1C(=O)c1c(O)c3c(c(O)c1C2=O)CC(O)(C(C)=O)CC3OC1CC(N)C(O)C(C)O1.Cl (stereo not drawn) [Ex.3, DM hydrochloride]",0.03%
4,"COc1cccc2c1C(=O)c1c(O)c3c(c(O)c1C2=O)CC(O)(C(C)=O)CC3OC1CC(N)C(O)C(C)O1.Cl (stereo not drawn) [Ex.4, DM hydrochloride]",0.50%

# More lines, now with the values ahead:
row,Residual solvent content (%),Compound
1,0.19%,"COc1cccc2c1C(=O)c1c(O)c3c(c(O)c1C2=O)CC(O)(C(C)=O)CC3OC1CC(N)C(O)C(C)O1.Cl (stereo not drawn) [Ex.5, DM hydrochloride]"
2,0.18%,"COc1cccc2c1C(=O)c1c(O)c3c(c(O)c1C2=O)CC(O)(C(C)=O)CC3OC1CC(N)C(O)C(C)O1.Cl (stereo not drawn) [Ex.6, DM hydrochloride]"
3,0.05%,"COc1cccc2c1C(=O)c1c(O)c3c(c(O)c1C2=O)CC(O)(C(C)=O)CC3OC1CC(N)C(O)C(C)O1.Cl (stereo not drawn) [Ex.7, DM hydrochloride]"
4,0.95%,"COc1cccc2c1C(=O)c1c(O)c3c(c(O)c1C2=O)CC(O)(C(C)=O)CC3OC1CC(N)C(O)C(C)O1.Cl (stereo not drawn) [Ex.8, DM hydrochloride]"

# Assay: Tests for hygroscopicity (critical relative humidity)
# Format: physicochemical
# Settings: conclusion from Table 1
# Procedure: Samples of the powders (or crystalline powders) obtained in Examples 1-8 were stored at 30° C. and at relative humidities ranging from 32 to 91%. Their moisture contents were measured until a steady state was reached.
row,hygroscopicity (in words),Compound
1,very low hygroscopicity,"COc1cccc2c1C(=O)c1c(O)c3c(c(O)c1C2=O)CC(O)(C(C)=O)CC3OC1CC(N)C(O)C(C)O1.Cl (stereo not drawn) [Ex.2, DM hydrochloride]"

# Same assay, conditions: stored at 30° C., relative humidities 32 to 91%, until steady state; calculated from increases or decreases in moisture content; hydrochloride
row,Compound,Critical relative humidity (%)
1,"COc1cccc2c1C(=O)c1c(O)c3c(c(O)c1C2=O)CC(O)(C(C)=O)CC3OC1CC(N)C(O)C(C)O1.Cl (stereo not drawn) [Ex.1, DM hydrochloride]",34%
2,"COc1cccc2c1C(=O)c1c(O)c3c(c(O)c1C2=O)CC(O)(C(C)=O)CC3OC1CC(N)C(O)C(C)O1.Cl (stereo not drawn) [Ex.2, DM hydrochloride]",73%
3,"COc1cccc2c1C(=O)c1c(O)c3c(c(O)c1C2=O)CC(O)(C(C)=O)CC3OC1CC(N)C(O)C(C)O1.Cl (stereo not drawn) [Ex.3, DM hydrochloride]",41%
4,"COc1cccc2c1C(=O)c1c(O)c3c(c(O)c1C2=O)CC(O)(C(C)=O)CC3OC1CC(N)C(O)C(C)O1.Cl (stereo not drawn) [Ex.4, DM hydrochloride]",28%

# Next, values leading:
row,Critical relative humidity (%),Compound
1,29%,"COc1cccc2c1C(=O)c1c(O)c3c(c(O)c1C2=O)CC(O)(C(C)=O)CC3OC1CC(N)C(O)C(C)O1.Cl (stereo not drawn) [Ex.5, DM hydrochloride]"
2,29%,"COc1cccc2c1C(=O)c1c(O)c3c(c(O)c1C2=O)CC(O)(C(C)=O)CC3OC1CC(N)C(O)C(C)O1.Cl (stereo not drawn) [Ex.6, DM hydrochloride]"
3,41%,"COc1cccc2c1C(=O)c1c(O)c3c(c(O)c1C2=O)CC(O)(C(C)=O)CC3OC1CC(N)C(O)C(C)O1.Cl (stereo not drawn) [Ex.7, DM hydrochloride]"
4,53%,"COc1cccc2c1C(=O)c1c(O)c3c(c(O)c1C2=O)CC(O)(C(C)=O)CC3OC1CC(N)C(O)C(C)O1.Cl (stereo not drawn) [Ex.8, DM hydrochloride]"

# Assay: Tests for chemical stability (storage at 60° C., HPLC)
# Format: physicochemical
# Settings: conclusion from Table 2
# Procedure: Each of the same samples as used in Example 12 was placed in a hermetically sealed container and stored at 60° C. for 1 month. Then, the sample was analyzed by HPLC to determine the DM content in the sample.
# (Conditions for Analysis by HPLC)
# Column: YMC A-312 (ODS) (manufactured by YMC Co., Ltd.).
# Mobile phase: Acetonitrile-water (38:62) (adjusted to pH 2.2 with phosphoric acid).
# Flow velocity: About 1.5 ml/min.
row,chemical stability (in words),Compound
1,excellent chemical stability,"COc1cccc2c1C(=O)c1c(O)c3c(c(O)c1C2=O)CC(O)(C(C)=O)CC3OC1CC(N)C(O)C(C)O1.Cl (stereo not drawn) [Ex.2, DM hydrochloride]"

# Same assay, conditions: hermetically sealed container, 60° C. for 1 month, HPLC; hydrochloride
row,Compound,Amount of remaining DM (%)
1,"COc1cccc2c1C(=O)c1c(O)c3c(c(O)c1C2=O)CC(O)(C(C)=O)CC3OC1CC(N)C(O)C(C)O1.Cl (stereo not drawn) [Ex.1, DM hydrochloride]",91.4%
2,"COc1cccc2c1C(=O)c1c(O)c3c(c(O)c1C2=O)CC(O)(C(C)=O)CC3OC1CC(N)C(O)C(C)O1.Cl (stereo not drawn) [Ex.2, DM hydrochloride]",100%
3,"COc1cccc2c1C(=O)c1c(O)c3c(c(O)c1C2=O)CC(O)(C(C)=O)CC3OC1CC(N)C(O)C(C)O1.Cl (stereo not drawn) [Ex.3, DM hydrochloride]",97.1%
4,"COc1cccc2c1C(=O)c1c(O)c3c(c(O)c1C2=O)CC(O)(C(C)=O)CC3OC1CC(N)C(O)C(C)O1.Cl (stereo not drawn) [Ex.4, DM hydrochloride]",90.4%

# The remaining lines, values ahead:
row,Amount of remaining DM (%),Compound
1,97.5%,"COc1cccc2c1C(=O)c1c(O)c3c(c(O)c1C2=O)CC(O)(C(C)=O)CC3OC1CC(N)C(O)C(C)O1.Cl (stereo not drawn) [Ex.5, DM hydrochloride]"
2,94.2%,"COc1cccc2c1C(=O)c1c(O)c3c(c(O)c1C2=O)CC(O)(C(C)=O)CC3OC1CC(N)C(O)C(C)O1.Cl (stereo not drawn) [Ex.6, DM hydrochloride]"
3,97.2%,"COc1cccc2c1C(=O)c1c(O)c3c(c(O)c1C2=O)CC(O)(C(C)=O)CC3OC1CC(N)C(O)C(C)O1.Cl (stereo not drawn) [Ex.7, DM hydrochloride]"
4,96.5%,"COc1cccc2c1C(=O)c1c(O)c3c(c(O)c1C2=O)CC(O)(C(C)=O)CC3OC1CC(N)C(O)C(C)O1.Cl (stereo not drawn) [Ex.8, DM hydrochloride]"
